Data: patent US10213447B2, “Preparation of acetate salt compositions of pharmaceutical agents” (The Curators of the University of Missouri, priority 2015, dated 2019)
Converted amounts (≈) assume the structure as drawn. One block for each compound: values may come before it.

Tests used:
[1] = cited from earlier work
[2] = in vivo; cited from earlier work
[3] = Meng, et al.; cited from earlier work
[4] = cited from earlier work; remark: listed apart in the source
[5] = cited from earlier work; remark: listed apart in the source
[6] = Particle size, zeta potential and polydispersity index by dynamic light scattering; format: physicochemical
Protocol: Fresh NPs were re-suspended by sonication (Qsonica LLC, Newtown, Conn., USA) in deionized water, or SA coated NPs were dissolved in deionized water and the particle size, the zeta potential, and polydispersity index (PDI) was measured through dynamic light scattering (Zetasizer Nano ZS, Malvern Instruments Ltd, Worcestershire, UK) at 25° C. Samples with polydispersity index (PDI)<0.05 were considered monodispersed according to the National Institute guidelines (7).

physchem = details: pH 7, aqueous buffer, thermodynamic from solid
Protocol: Sodium hydroxide was added raising the pH of the solution to 12.30. […] After the period of about 24 hours elapsed, the solution was freeze dried. The amount of DXT that dissolved into solution from each DXT composition was measured by determining the amount of DXT in the supernatant, as measured by UV spectroscopy at 230 nm after removing undissolved material by centrifugation. […] Native DXT (uncoated) dissolved into acetate buffer at the same pH was used as a control.

SMILES: C[C@H](Cn1cnc2c(N)ncnc21)OCP(=O)(O)O [TFV, tenofovir]
Solubility in water [1]: 13400 µg/mL (≈ 46700 µM)
Oral bioavailability [2]: 25-39%
TFV encapsulated in chitosan NPs (EE %) [3]: 5.83%
log P [4]: −1.1

SMILES: O=P(O)(O)OP(=O)(O)OP(=O)(O)O [Triphosphoric acid]
pKa (fifth listed) ([5]; fifth dissociation, printed pKa): 8.5
pKa1 ([5]; first dissociation): 1
pKa4 ([5]; fourth dissociation): 3.7
pKa (second listed) ([5]; second dissociation, printed pKa): 2.2
pKa3 ([5]; third dissociation): 2.3

SMILES: CC(=O)[O-].[Na+] [pure salt, sodium acetate]
ZP ([6]; as worded): 0-3 mV
Zeta potential of pure salt (ev) ([6]; pure salt): −4.87 ± 0.64 ev

solubility (physchem): ~11.8 µg/mL (≈ 14.6 µM)
SMILES: CC(=O)O[C@@]12CO[C@@H]1C[C@H](O)[C@@]1(C)C(=O)[C@H](O)C3=C(C)[C@@H](OC(=O)[C@H](O)[C@@H](NC(=O)OC(C)(C)C)c4ccccc4)C[C@@](O)([C@@H](OC(=O)c4ccccc4)[C@H]21)C3(C)C [uncoated DXT, Docetaxel, reference compound]
pKa [5]: ~10.96
